Assay results: publication PMC4039107, “Spores of Clostridium engineered for clinical efficacy and safety cause regression and cure of tumors in vivo” (Oncotarget, 2014)
Read-outs that look alike come from different tables or passages of the source.

How the values were obtained:
Type in all cases: biochemical
HsoNTR = target: T1, HsoNTR (Histophilus somni, UniProt A0A9Q6YZG6); experiment: HPLC CB1954 nitroreductase assay
T1 construct: gene JFL49_05940
From the text: HPLC CB1954 nitroreductase assay on HsoNTR

NmeNTR = target: T2, NmeNTR (Neisseria meningitidis, UniProt Q9K022); experiment: HPLC CB1954 nitroreductase assay
T2 construct: gene NMB0804
From the text: HPLC CB1954 nitroreductase assay on NmeNTR

NfnB = target: T3, NfnB (Escherichia coli, UniProt P38489); experiment: menadione reductase activity of C. sporogenes E1 lysate; settings: background of endogenous quinone reductases in wild type and pyrE mutant controls
T3 construct: gene nfsB; untagged as far as told; expressed from fdx promoter at pyrE locus of C. sporogenes strain E1; cell lysate
T3 sequence (P38489 1-217): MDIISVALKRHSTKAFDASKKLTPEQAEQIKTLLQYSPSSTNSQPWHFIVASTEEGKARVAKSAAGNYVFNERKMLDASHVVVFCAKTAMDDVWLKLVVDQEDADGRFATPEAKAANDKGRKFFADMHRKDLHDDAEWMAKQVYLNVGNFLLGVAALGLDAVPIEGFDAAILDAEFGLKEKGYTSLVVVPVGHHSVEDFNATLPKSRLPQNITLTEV

[1] = kcat is with NADH as co-substrate, read-out: Km ^CB1954
[2] = co-substrate CB1954, read-out: Km ^NADH

T2 sequence (Q9K022 entry or part of it): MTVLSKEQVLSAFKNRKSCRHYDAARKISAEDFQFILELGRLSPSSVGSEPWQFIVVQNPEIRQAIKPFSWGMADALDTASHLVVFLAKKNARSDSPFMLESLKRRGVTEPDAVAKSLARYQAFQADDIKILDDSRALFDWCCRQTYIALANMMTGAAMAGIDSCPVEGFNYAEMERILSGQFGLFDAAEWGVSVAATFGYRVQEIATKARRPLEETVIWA
T1 sequence (A0A9Q6YZG6 entry or part of it): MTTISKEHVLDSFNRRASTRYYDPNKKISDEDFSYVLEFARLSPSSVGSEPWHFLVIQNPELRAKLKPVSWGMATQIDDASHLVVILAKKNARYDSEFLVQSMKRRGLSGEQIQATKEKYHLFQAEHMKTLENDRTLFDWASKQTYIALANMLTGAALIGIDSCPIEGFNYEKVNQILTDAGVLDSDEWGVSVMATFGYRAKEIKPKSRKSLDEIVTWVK

**Q.** What does the source list for NC(=O)c1cc(N2CC2)c([N+](=O)[O-])cc1[N+](=O)[O-] [CB1954, 5-(aziridin-1-yl)-2,4-dinitrobenzamide]?
**A.** Km (HsoNTR; [1]): 22 µM; Km (NmeNTR; [1]): 2.47 µM

**Q.** NC(=O)C1=CN([C@@H]2O[C@H](COP(=O)(O)OP(=O)(O)OC[C@H]3O[C@@H](n4cnc5c(N)ncnc54)[C@H](O)[C@@H]3O)[C@@H](O)[C@H]2O)C=CC1 [NADH] was tested. Which Km (HsoNTR; [2]) did it give?
**A.** The Km was 644 µM.

**Q.** What about the Km (NmeNTR; [2]) of the same molecule?
**A.** The Km was 188 µM.

**Q.** Which “specific menadione reductase activity” value (NfnB) does the source give for CC1=CC(=O)c2ccccc2C1=O [menadione] here?
**A.** Its value is “both E1 and N1 contained menadione reductase activity elevated significantly above the endogenous levels”.
